{"source": "patent US20250034194A1", "about": "“INHIBITORS OF ABNORMAL PHOSPHORYLATION AND TAU PROTEIN AGGREGATION” (UNIVERSITE DE PICARDIE JULES VERNE, priority 2021, published 2025)", "key": {"[1]": {"test_system": "tau phosphorylation (S262 site) in cortical cells of rTg4510 mice (human tau P301L)", "test": "In cellulo tau phosphorylation test in cortical cells of rTg4510 mice", "assay_type": "cell-based", "conditions": "24 h", "excerpt": "Cortical cells from rTg4510 mice mutated for human tau protein (P301 L) were used as a model of primary cells expressing a tauopathy without induction by an effector, unlike the previous cellular model (Santa Cruz et al., Science, 2005).\nCortical cells are extracted from mouse embryos expressing the P301L mutation at stage E16 and cultured in a 6-well plate. On day 14 (moderate tau phosphorylation) or day 18 (severe tau phosphorylation), cells extracted from the same embryo are placed in the presence of the Mal16diS molecule at different concentrations (0.1 or 1 μg/mL), in a final volume of 2 mL simultaneously with a well of cells from the same embryo not receiving molecules for 24 h. After 24 h of treatment with the molecules, the cells are rinsed with 1×PBS then lysed and recovered in RIPA buffer (Thermo Fischer). The protein extracts from the cells (10 μg) are then analysed by western blot according to the same procedure described above.\nThe tau phosphorylation site studied here is the S262 site (Thermo Fisher), normalized to the expression of total tau protein (K9JA, Dako). The bands are quantified using the Odyssey software of the LI-COR device allowing the p-tau/tau ratio to be calculated for each of the conditions. The ratio obtained for each concentration of molecule is then expressed as a percentage of the ratio obtained for cells not treated by the molecules. Thus a value less than 100% corresponds to protection provided by the molecules in this cellular model of expression of tau phosphorylation. The experiment was repeated at least three times for each dose of “Mal16diS” molecule. The mean and standard deviation of the replicates are shown in FIGS. 17 and 18; each of the values obtained for each dose is compared to that of the cells without addition of the molecule, with a t-test. Statistical differences with p-value <0.01 and <0.001 are represented by “**” and “***” respectively."}, "[2]": {"test_system": "SH-SY5Y", "test": "Cytotoxicity study, MTT test", "assay_type": "cell-based", "conditions": "differentiated SH-SY5Y; 0.1 to 100 μg/mL; 24 hours", "protocol": "In order to evaluate the level of toxicity of these molecules according to their concentration in the cellular environment, an MTT test (3-(4,5-dimethylthiazol-2-yl)-2,5-diphenyl tetrazolium bromide) is carried out (FIGS. 11 and 12) upstream of the phosphorylation tests in cellulo.\nSH-SY5Y (ATCC-CRL-2266) are developed in Dulbecco's Modified Eagle Complete Medium (DMEM-GlutaMAX™, Life Technologies) with 10% foetal bovine serum (FBS) and 1% penicillin/streptomycin in an incubator at 37° C. with 5% CO2.\nFor this, the SH-SY5Y cells are cultured in a 6-well plate at a cell density of 200,000 cells/well and are differentiated using retinoic acid (10 μM, Sigma Aldrich) for 5 days. On day 6, the cells are brought into contact with LG2A molecules at different concentrations (0.1, 1, 10 or 100 μg/mL), in a final volume of 2 mL. After 24 hours, MTT (5 μg/mL; Sigma-Aldrich) is added to the cell medium for 2 hours at 37° C. Then the medium is removed and 200 μL of pure dimethylsulfoxide (DMSO, Sigma-Aldrich) are added to each well. The entire contents of each well are transferred to a 96-well plate and the absorbance is measured at 562 nm using the Infinite M1000 spectrofluorometer (Tecan)."}, "[3]": {"target": "T1, tau protein (4R2N, 441 amino acids) (Homo sapiens, UniProt P10636)", "T1 construct": "purchased Millipore (tau); Promega (GSK3β)", "T1 sequence (P10636 1-441 isoform P10636-8)": "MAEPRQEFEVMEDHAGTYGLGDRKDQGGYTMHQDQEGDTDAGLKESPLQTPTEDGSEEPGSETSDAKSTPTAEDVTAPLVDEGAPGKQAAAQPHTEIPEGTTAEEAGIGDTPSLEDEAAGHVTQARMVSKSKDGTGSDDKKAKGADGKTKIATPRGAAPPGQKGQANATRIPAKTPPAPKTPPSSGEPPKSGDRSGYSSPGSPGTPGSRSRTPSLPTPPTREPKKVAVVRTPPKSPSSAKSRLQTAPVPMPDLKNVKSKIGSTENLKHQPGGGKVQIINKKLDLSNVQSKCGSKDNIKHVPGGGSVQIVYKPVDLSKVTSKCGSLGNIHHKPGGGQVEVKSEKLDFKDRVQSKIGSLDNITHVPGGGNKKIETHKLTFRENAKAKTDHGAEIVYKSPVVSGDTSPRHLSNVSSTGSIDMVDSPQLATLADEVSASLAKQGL", "test": "In vitro abnormal tau phosphorylation by GSK3β, competition with heparin (western blot)", "assay_type": "biochemical", "excerpt": "Phosphorylation of tau protein is the most common post-translational modification to regulate tau activity and functions. The longest tau isoform (4R2N, 441 amino acids) containing 85 potential phosphorylation sites was used. In vitro phosphorylation of the tau protein is done by induction, on the one hand, (FIG. 5) and, on the other hand, according to a competition process between the LG2A molecules and heparin, conventionally used to induce abnormal tau phosphorylation in vitro (FIGS. 3, 4, 6, 7, 8, 9 and 10).\nFor abnormal tau phosphorylation tests, GSK3p, a kinase centrally involved in this process in the brains of subjects with Alzheimer's disease (AD), was used. Analysis of tau phosphorylation by GSK3b at sites characteristic of AD is possible by the western blot technique using specific antibodies that recognize abnormally phosphorylated sites in the brain or cerebrospinal fluid of AD subjects, such as the AT270 antibody which recognizes threonine 181 (Thr181), the PHF1 antibody which recognizes serines 396 and 404 (Ser396/Ser404), and the AT8 antibody, which recognizes the Ser199/Ser202/Thr205 site.\nBy competition: The tau protein (40 μg/mL) is phosphorylated by the GSK3β enzyme at 4 ng/mL (Promega) in the presence of ATP (Sigma-Aldrich) at 48 μM and protease inhibitors (Sigma-Aldrich, 1/100), in the buffer mentioned above. The ability of the LG2A molecules (60 μg/mL) to compete with heparin (12 μg/mL; Sigma-Aldrich) is evaluated. Thus if the signal in the presence of the molecules is less than that obtained with heparin alone, the molecules are then defined as “protectors” from abnormal tau phosphorylation.\nIn both systems (induction or competition), the tau protein is incubated at 37° C. with stirring in the presence of the different elements presented above. The reaction kinetics are monitored by taking 8 μL of the samples at 1.5 h, 3 h and 6 h of incubation. Loading buffer (Euromedex) and β-mercaptoethanol (Sigma-Aldrich) are added to each sample. The samples are then stored at −20° C. until analysis by western blot.\nAfter denaturation of the samples by heating at 95° C. for 5 minutes, the samples are deposited simultaneously with the molecular weight marker (Precision Plus Protein™ Dual Color Standards; BIO-RAD) on a 10% acrylamide gel placed in an electrophoresis tank containing migration buffer (0.25 M Tris; 1.6 M Glycine; […]; pH 8.6).\nThe controls used for this phosphorylation experiment followed by western blot are: • the “native tau” protein, that is to say the non-phosphorylated tau protein. • the tau protein phosphorylated by GSK3b alone in the absence of heparin. • the tau protein phosphorylated in the presence of heparin, denoted “tau+heparin”. • the “external standard” corresponding to the tau protein phosphorylated in the presence of heparin for 3 h. This standard is carried out in an experiment independently of the phosphorylation experiments in the presence of LG2A compounds. It ensures that the western blot is carried out correctly.\nThen the membrane is incubated overnight with stirring at +4° C. in a solution of PBS, 0.1% Tween and 1% milk containing the primary antibody specific for tau phosphorylation sites (AT270, ThermoScientific or S199-202, Millipore).\nAfter incubation of the PVDF membrane in the chosen primary antibody, a succession of 3 washes of 5 minutes of the membrane is carried out in PBS and 0.1% Tween with stirring and the membrane is incubated for 1 h with stirring at room temperature in a solution of 1×PBS, 0.1% Tween and 1% milk containing the diluted secondary antibody (Jackson Immuno-Research)."}}}
{"smiles": "CCCCCCCCCCCCCCCCNC(=O)[C@H](O)[C@@H](O)[C@H](O[C@H]1OC(COS(=O)(=O)[O-])[C@@H](O)C(O)[C@@H]1O)[C@H](O)COS(=O)(=O)[O-].[Na+].[Na+]", "note": "(stereo partly drawn) [Mal16diS, N-Hexadecyl-6,6′-Di-O-Sulfo-D-Maltobioamide Disodium]", "values": [{"measurement": "reduction in tau phosphorylation (S262, p-tau/tau) compared to untreated cells", "setting": "[1]; moderate phosphorylation (D14), 0.1 μg/mL", "value": 48, "unit": "%"}, {"measurement": "reduction in tau phosphorylation (S262, p-tau/tau) compared to untreated cells", "setting": "[1]; moderate phosphorylation (D14), 1 μg/mL", "value": 64, "unit": "%"}, {"measurement": "reduction in tau phosphorylation (S262, p-tau/tau) compared to untreated cells", "setting": "[1]; severe phosphorylation (D18), 0.1 μg/mL", "value": 39, "unit": "%"}, {"measurement": "reduction in tau phosphorylation (S262, p-tau/tau) compared to untreated cells", "setting": "[1]; severe phosphorylation (D18), 1 μg/mL", "value": 53, "unit": "%"}, {"measurement": "cytotoxicity (MTT)", "setting": "[2]", "value": "not cytotoxic"}, {"measurement": "abnormal phosphorylation of tau (p-tau) revealed by AT270 and Ser199/202 antibodies", "setting": "[3]; in presence of heparin, after 3 h of reaction", "value": "inhibited"}, {"measurement": "ability to compete with heparin for abnormal tau phosphorylation by GSK3β", "setting": "[3]; molecule 60 μg/mL vs heparin 12 μg/mL, 1.5 to 6 h of reaction, AT270, Ser199/202", "value": "total competition with heparin"}]}
